Laboratory results from patent publication US7825264B2, “Substituted heterocycles, their use as medicament, and pharmaceutical preparations comprising them” (sanofi-aventis, priority 2005, dated 2010).

Molecular target: T1, Human Kv1.5 channels (Homo sapiens, UniProt P22460)
T1 construct: expressed in transfected cells; host or cells: Xenopus laevis oocytes injected with RNA synthesized in vitro
Test: Activity on the Kv1.5 channel: two-microelectrode voltage clamp on Xenopus oocytes expressing Kv1.5
Assay type: cell-based
Conditions: human Kv1.5 expressed in Xenopus oocytes, room temperature, Hill equation; read-out: Kv1.5 IC-50
Procedure: Determination of the Activity on the Kv1.5 Channel
Human Kv1.5 channels were expressed in xenopus oocytes. For this purpose, firstly oocytes were isolated from Xenopus laevis and defolliculated. Kv1.5-encoding RNA synthesized in vitro was then injected into these oocytes. After Kv1.5 protein expression for 1-7 days, Kv1.5 currents were measured on the oocytes using the two-microelectrode voltage clamp technique. The Kv1.5 channels were in this case usually activated with voltage jumps lasting 500 ms to 0 mV and 40 mV. A solution of the following composition flowed through the bath: NaCl 96 mM, KCl 2 mM, CaCl2 1.8 mM, MgCl2 1 mM, HEPES 5 mM (titrated to pH 7.4 with NaOH). These experiments were carried out at room temperature. The following were employed for data acquisition and analysis: Geneclamp amplifier (Axon Instruments, Foster City, USA) and MacLab D/A converter and software (ADInstruments, Castle Hill, Australia). The substances of the invention were tested by adding them in various concentrations to the bath solution. The effects of the substances were calculated as percent inhibition of the Kv1.5 control current which was obtained when no substance was added to the solution. The data were then extrapolated using the Hill equation in order to determine the inhibitory concentrations IC50 for the respective substances.

T1 sequence (P22460 whole entry): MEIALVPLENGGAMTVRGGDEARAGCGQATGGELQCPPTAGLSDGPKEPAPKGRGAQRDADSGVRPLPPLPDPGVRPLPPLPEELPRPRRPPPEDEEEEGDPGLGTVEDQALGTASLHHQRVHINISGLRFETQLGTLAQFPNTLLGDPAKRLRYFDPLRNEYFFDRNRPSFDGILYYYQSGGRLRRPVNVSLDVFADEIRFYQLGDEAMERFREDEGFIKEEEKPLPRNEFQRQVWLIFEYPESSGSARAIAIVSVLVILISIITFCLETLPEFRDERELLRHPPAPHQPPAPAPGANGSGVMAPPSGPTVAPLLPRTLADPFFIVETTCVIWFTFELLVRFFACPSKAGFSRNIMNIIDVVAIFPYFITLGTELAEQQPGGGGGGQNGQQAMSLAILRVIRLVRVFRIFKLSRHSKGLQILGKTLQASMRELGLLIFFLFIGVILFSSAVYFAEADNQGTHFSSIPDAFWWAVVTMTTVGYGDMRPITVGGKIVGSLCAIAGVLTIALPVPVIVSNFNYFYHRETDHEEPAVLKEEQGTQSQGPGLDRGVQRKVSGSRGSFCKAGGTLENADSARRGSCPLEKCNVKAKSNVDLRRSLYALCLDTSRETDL

Compound | IC50 [µM]
O=C1CCCN1[C@@H](c1ccccc1)[C@H](OCC1CC1)c1ccncc1 (racemic) [Example 91] | 4
CC(OCC1CC1)(c1ccccc1)C(c1ccccc1)N1CCCC1=O (centres unmarked) [Example 8, 1-(2-Cyclopropylmethoxy-1,2-diphenylpropyl)pyrrolidin-2-one] | 1.2
O=C1CCCN1[C@H](c1ccc(F)cc1)[C@H](OCCCC(F)(F)F)c1ccc(F)cc1 (racemic) [Example 43] | 1.4
O=C1CCCN1[C@@H](c1ccc(F)cc1)[C@H](OCc1ccc(Cl)cc1)c1ccc(F)c(F)c1 (racemic) [Example 101] | 5.6
CCCO[C@H](c1ccccc1)[C@H](c1ccccn1)N1CCCC1=O (racemic) [Example 71] | 1.6
O=C1CCCN1[C@H](c1ccc(F)cc1)[C@H](OCC1CC1)c1ccc(F)cc1 (racemic) [Example 27] | 0.6
CO[C@H](c1ccc(Cl)cc1)[C@H](c1ccccc1)N1CCCCC1=O (racemic) [Example 67] | 1.2
COc1ccc(CO[C@H](c2ccc(F)cc2)[C@@H](c2ccc(F)cc2)N2CCCC2=O)cc1 (racemic) [Example 94] | 5.3
O=C1CCCN1[C@@H](c1ccccn1)[C@H](OCCF)c1ccccc1 (racemic) [Example 104] | 6.7
CC1CCC(=O)N1[C@@H](c1ccc(F)cc1)[C@H](OCC1CC1)c1ccc(F)c(F)c1 (mixture of isomers) [Example 35] | 0.5
CCCO[C@H](c1ccncc1)[C@H](c1ccccc1)N1CCCC1=O (racemic) [Example 97] | 5.4
O=C1CCCN1[C@@H](c1cccnc1)[C@H](OCCCC(F)(F)F)c1ccc(F)cc1 (racemic) [Example 65] | 1.5
Cc1ccc([C@H]([C@H](OCC2CC2)c2ccc(F)cc2)N2CCCC2=O)s1 (racemic) [Example 17] | 0.3
O=C1CCCN1[C@@H](c1ccc(F)cc1)[C@H](OCC1CC1)c1cccnc1 (racemic) [Example 58] | 1
N#Cc1ccc(O[C@H](c2ccccc2)[C@H](c2ccccn2)N2CCCC2=O)cc1 (racemic) [Example 96] | 5.1
CO[C@H](c1ccc(F)c(F)c1)[C@H](c1ccc(F)cc1)N1CCCCC1=O (racemic) [Example 99] | 6.3
O=C1CCCN1[C@@H](c1cccc2cccnc12)[C@H](OCC1CC1)c1ccc(F)cc1 (racemic) [Example 3, 1-[(1R′,2S′)-2-Cyclopropylmethoxy-2-(4-fluorophenyl)-1-quinolin-8-ylethyl]-pyrrolidin-2-one] | 0.5
O=C1CCCN1[C@@H](c1ccc(F)cc1)[C@H](OCC1CC1)C1CCCCC1 (racemic) [Example 83] | 1.8
N#Cc1ccc(O[C@H](c2ccc(C(F)(F)F)cc2)[C@H](c2ccc(F)cc2)N2CCCC2=O)cc1 (racemic) [Example 116] | ~10
COc1ccc(CO[C@H](c2ccc(F)c(F)c2)[C@H](c2cccnc2)N2CCCC2=O)cc1 (racemic) [Example 81] | 3.2
O=C1CCCN1[C@@H](c1ccccc1)[C@H](Oc1ccccn1)c1ccccc1 (racemic) [Example 70] | 2.3

Compound | IC50 [µM]
N#Cc1ccc(O[C@H](c2ccc(OC(F)(F)F)cc2)[C@H](c2ccc(F)cc2)N2CCCC2=O)cc1 (racemic) [Example 108] | 9
CO[C@@H](c1ccccc1)[C@H](c1ccccc1)N1CCCC1=O (racemic) [Example 82] | 3.7
CC#CCO[C@H](c1ccc(F)c(F)c1)[C@H](c1ccc(F)cc1)N1CCCC1=O (racemic) [Example 62] | 2.4
C#CCO[C@H](c1ccc(F)c(F)c1)[C@H](c1ccc(F)cc1)N1C(=O)CCC1C (mixture of isomers) [Example 26] | 1
O=C1CCCCN1[C@@H](c1ccc(F)cc1)[C@H](OCCCC(F)(F)F)c1cccnc1 (racemic) [Example 118] | 0.8
COc1ccc([C@@H](OCC2CC2)[C@H](c2ccc(F)cc2)N2CCCC2=O)cc1 (racemic) [Example 73] | 1
N#Cc1ccc(O[C@H](c2ccc(F)c(F)c2)[C@H](c2cccnc2)N2CCCC2=O)cc1 (racemic) [Example 115] | ~10
O=C1CCCN1[C@@H](c1ccccc1)[C@H](OCCCC(F)(F)F)c1ccc(F)cc1 (racemic) [Example 51] | 0.9
CO[C@H](c1ccc(F)cc1)[C@H](c1ccccc1)N1CCCC1=O (racemic) [Example 77] | 2.7
O=S1(=O)CCCN1[C@H](c1ccccc1)[C@@H](OCC1CC1)c1ccccc1 [Example 52] | 2
O=C1CCCN1[C@H](c1ccc(F)cc1)[C@H](OCC1CC1)c1cccc2ccccc12 (racemic) [Example 12, 1-[(1R′,2R′)-2-Cyclopropylmethoxy-1-(4-fluorophenyl)-2-naphthalen-1-ylethyl]pyrrolidin-2-one] | 0.5
CCCO[C@H](c1ccc(C#N)cc1)[C@H](c1ccc(F)cc1)N1CCCC1=O (racemic) [Example 36] | 0.6
CCCCO[C@H](c1ccc(Cl)cc1)[C@H](c1ccccc1)N1CCCC1=O (racemic) [Example 56] | 0.8
CO[C@H](c1ccccc1)[C@H](c1ccccc1)N1CCCC1=O [Example 85] | 3.6
O=C1CCCN1[C@@H](c1cccc2cccnc12)[C@H](OCC1CC1)c1cccnc1 (racemic) [Example 119] | 0.8
O=C1CCCCN1[C@@H](c1ccc(F)cc1)[C@@H](OCC1CC1)c1cccc2cccnc12 (racemic) [Example 1, 1-[(1R′,2S′)-2-Cyclopropylmethoxy-1-(4-fluorophenyl)-2-quinolin-8-ylethyl]-piperidin-2-one] | 1.4
CCCO[C@H](c1ccccc1)[C@@H](c1ccccn1)N1CCCC1=O (racemic) [Example 64] | 1.83
C#CCO[C@H](c1ccc(F)c(F)c1)[C@H](c1ccc(F)cc1)N1CCCCC1=O (racemic) [Example 30] | 1.1
N#Cc1ccc(O[C@H](c2cccnc2)[C@H](c2cccc3cccnc23)N2CCCC2=O)cc1 (racemic) [Example 66] | 2.3
O=C1CCCN1[C@H](c1ccccn1)[C@H](OCC1CC1)c1ccccc1 (racemic) [Example 63] | 1.7
O=C1CCCN1[C@@H](c1ccccc1)[C@H](OCc1ccc(Cl)cc1)c1ccc(Cl)cc1 (racemic) [Example 57] | 1

Compound | IC50 [µM]
O=C1CCCN1[C@@H](c1ccc(F)cc1)[C@H](OCCCC(F)(F)F)C1CCCCC1 (racemic) [Example 24] | 0.65
CC1CCC(=O)N1[C@@H](c1ccc(F)cc1)[C@H](Oc1ccc(C#N)cc1)c1ccc(F)c(F)c1 (mixture of isomers) [Example 90] | 4.1
O=C1CCCN1[C@@H](c1ccc(F)cc1)[C@@H](OCC1CC1)c1cccc2cccnc12 (racemic) [Example 75] | 1.4
N#Cc1ccc(O[C@H](c2ccc(F)cc2)[C@H](c2cccc3cccnc23)N2CCCC2=O)cc1 (racemic) [Example 55] | 1.1
CCCO[C@H](c1ccc(Cl)cc1)[C@H](c1ccccc1)N1CCCCC1=O (racemic) [Example 13] | 0.21
CCCO[C@@H](c1ccccc1)[C@@H](c1ccccc1)N1CCCC1=O [Example 18] | 0.4
CCCO[C@@H](c1ccc(F)cc1)[C@H](c1ccccc1)N1CCCC1=O (racemic) [Example 25] | 0.45
O=C1CCCN1[C@@H](c1ccc(F)cc1)[C@@H](OCC1CC1)c1ccnc2ccccc12 (racemic) [Example 84] | 2.4
COc1ccc(CO[C@H](c2ccc(Cl)cc2)[C@H](c2ccccc2)N2CCCC2=O)cc1 (racemic) [Example 60] | 1.3
N#Cc1ccc(O[C@H](c2ccc(F)c(F)c2)[C@H](c2ccc(F)cc2)N2CCCS2(=O)=O)cc1 (racemic) [Example 112] | ~10
N#Cc1ccc(CO[C@H](c2ccc(F)c(F)c2)[C@H](c2ccc(F)cc2)N2CCCC2=O)cc1 (racemic) [Example 69] | 1.6
CO[C@@H](c1ccc(F)cc1)[C@H](c1ccccc1)N1CCCC1=O (racemic) [Example 88] | 4
C=CO[C@H](c1ccccc1)[C@H](c1ccccc1)N1CCCC1=O [Example 120, 1 S,2R-1-(1,2-Diphenyl-2-vinyloxyethyl)pyrrolidin-2-one] | 0.8
CCCO[C@@H](c1ccc(Cl)cc1)[C@@H](c1ccccc1)N1CCCC1=O (racemic) [Example 6, (1R′,2S′)-1-[2-(4-Chlorophenyl)-1-phenyl-2-propoxyethyl]pyrrolidin-2-one] | 0.92
COc1ccc(CO[C@H](c2cccnc2)[C@H](c2ccc(F)cc2)N2CCCC2=O)cc1 (racemic) [Example 86] | 2.9
O=C1CCCN1[C@@H](c1ccc(F)cc1)[C@H](Oc1ccccn1)c1ccc(F)c(F)c1 (racemic) [Example 114] | ~10
CS(=O)(=O)c1ccc([C@@H](OCC2CC2)[C@H](c2ccc(F)cc2)N2CCCC2=O)cc1 (racemic) [Example 61] | 1.8
O=C1CCCN1[C@H](c1ccc(F)cc1)[C@@H](OCC1CC1)c1cccc2cccnc12 (racemic) [Example 39] | 1.1
O=C1CCCCN1[C@@H](c1ccc(F)cc1)[C@H](OCC1CC1)c1cccc2cccnc12 (racemic) [Example 93] | 4.1
O=C1CCCN1[C@@H](c1ccccc1)[C@H](OCCCC(F)(F)F)c1ccc(Cl)cc1 (racemic) [Example 22] | 0.5
